Measurements taken from patent US20200345725A1, “Methods and Compositions for Treating Cancer” (Omeros Corporation, priority 2019, published 2020).

Columns and labels:
Assay type in all cases: cell-based
mouse splenocytes = assay: IL-2 in stimulated splenocyte cultures from WT or GPR174 KO mice; conditions: 48 hours; 10 μM; vs vehicle
Experimental: GPR174 knockout (KO) mice (referred to also as “FKSG79”) were generated as described in Gragerov A. et al., PNAS vol 104(36): 14406-14411, 2007. Splenocyte cultures were generated from four GPR174 KO mice and four wild-type (WT) mice. Single-cell suspension of individual mouse spleens were pelleted by centrifugation, resuspended in RBC lysis buffer to remove erythrocytes, spun down again and resuspended in T cell medium (RPMI-1640, 10% FBS, 6 mM L-Glutamine, 12.5 mM HEPES, 50 μM 2-mercaptoethanol, Pen/Strep). Thus, prepared splenocytes were plated into 96-well plates at a density of 3×10^6 cells/mL, 250 μL/well and stimulated with 100 ng/mL of anti-CD3 antibodies and 100 ng/mL of anti-CD28. Cells were treated with either vehicle (0.1% DMSO) or GPR174 inhibitory Compound 10 (10 μM). 48 hours later, cell supernatants were analyzed for cytokine levels using LEGENDplex mouse Th1 cytokine detection kit (BioLegend). Four GPR174 KO and four WT spleens were analyzed, each in triplicate.

GPR174 [1] = molecular target: T1, GPR174 (Mus musculus, UniProt Q3U507); assay: IL-2 production from purified GPR174 WT and GPR174-KO mouse T cells with PS liposomes (FIG. 67); conditions: GPR174 WT mouse T cells, in presence of PS liposomes, FIG. 67
T1 construct: endogenous in cells; host or cells: purified mouse T cells from WT (and GPR174-KO) mice
T1 sequence (Q3U507 whole entry): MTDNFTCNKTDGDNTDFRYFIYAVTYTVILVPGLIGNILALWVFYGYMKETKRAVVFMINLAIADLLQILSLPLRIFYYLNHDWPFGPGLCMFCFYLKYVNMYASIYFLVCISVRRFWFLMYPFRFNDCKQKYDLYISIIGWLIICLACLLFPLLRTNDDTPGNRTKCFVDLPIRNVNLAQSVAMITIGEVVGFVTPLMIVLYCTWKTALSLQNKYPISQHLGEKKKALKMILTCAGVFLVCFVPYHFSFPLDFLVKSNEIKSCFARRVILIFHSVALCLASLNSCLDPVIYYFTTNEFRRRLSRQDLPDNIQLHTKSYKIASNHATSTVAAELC

GPR174 [2] = assay: as above
human PBMCs = assay: Treg (FoxP3/Helios) flow cytometry in stimulated human PBMC
Experimental: (§1) A fraction of the cells was taken for staining on day 3 post-stimulation, while the rest of the cells were split 1:4 with fresh medium and used for staining on day 7 post-stimulation. To determine the fraction of natural Treg (nTreg) cells (FoxP3^+Helios^+), PBMCs were washed, stained with fluorescently labeled anti-CD4 antibodies, fixed, permeabilized and stained with a mixture of fluorescent anti-FoxP3 and anti-Helios antibodies. Labeled cells were analyzed by flow cytometry for populations stained for these three markers. Each experiment was performed in triplicate and was repeated five times.
as §1, with “(FoxP3^+Helios^−),” for “(FoxP3^+Helios^+),”, “three” for “five”
as §1, with “day 2” for “day 3”, “(FoxP3^+Helios^+), PBMC” for “(FoxP3^+Helios^+), PBMCs”

SMILES: CC1CCN(c2cc(N3CCN(S(=O)(=O)c4ccccc4)CC3)c([N+](=O)[O-])cc2F)CC1 [compound 10]
- IL-2 in culture supernatants, GPR174 KO splenocytes (mouse splenocytes): no significant difference
- IL-2 in culture supernatants, WT splenocytes (mouse splenocytes): increased
- reversal of PS liposome-mediated suppression of IL-2, fold change (GPR174 [1]): 3.5 fold
- effect on IL-2 in presence of PS liposomes, fold change (GPR174 [2]; GPR174-KO mouse T cells, FIG. 67): 0.9 fold
- effect on T cell response in the absence of PS or GPR174 (GPR174 [2]; purified human and mouse T cells): negligible effect
- percentage of FoxP3+Helios+ (nTreg) cells in the CD4+ cell population (human PBMCs; Example 6, day 7 post-stimulation, 100 μM, vs vehicle): significantly reduced
- percentage of FoxP3+Helios+ (nTreg) cells in the CD4+ cell population (human PBMCs; Example 8, day 7, single donor, 3, 10, 30 μM): significantly reduced
- FoxP3+Helios+ (nTreg) cells in the CD4+ cell population, fraction of vehicle (human PBMCs; Example 9, day 7, eight donors, 30 μM): significantly reduced
- percentage of FoxP3+Helios− cells in the CD4+ cell population (human PBMCs; day 3 post-stimulation, 100 μM, vs vehicle): significantly increased
